The source made the active and inactive calls. The calls are words filed in the database; no cut-off is given here.

This is an account of results in ChEMBL document CHEMBL4425162, “Discovery of potent wall teichoic acid early stage inhibitors” (Bioorg Med Chem Lett, 2016).

The nature of test [1]: Inhibition of Methicillin-resistant Staphylococcus aureus COL TarO assessed as suppression of bacteriophageK-mediated cell lysis. Also noted: species or system Staphylococcus aureus subsp. aureus COL.
Test [2] in a line: Binding affinity to Methicillin-resistant Staphylococcus aureus COL TarG assessed as suppression of targocil-mediated bacterial growth inhibition after 20 hrs in presence of L-638. Further details: species or system Staphylococcus aureus subsp. aureus COL.
For test [3], the system named is Staphylococcus aureus subsp. aureus COL. The test can be described thus: Inhibition of Staphylococcus aureus COL TarO assessed as concentration of compound for potentiation of action of imipenem-mediated bacterial growth inhibition.
Test [4] relates to Staphylococcus aureus. The test can be described thus: Inhibition of Methicillin-resistant Staphylococcus aureus TarO assessed as percentage of MRSA MITC<=25 uM for 25 isolates. Further details: scale not given: the % may be the effect or the level left.
The subject of test [5] is Staphylococcus epidermidis. The test can be described thus: Inhibition of Methicillin-resistant Staphylococcus epidermidis TarO assessed as percentage of MRSE MITC<=25 uM for 25 isolates. Also noted: scale not given: the % may be the effect or the level left.
A short description of test [6]: Inhibition of TarA (unknown origin) at 200 uM.
A short description of test [7]: Inhibition of mnaA (unknown origin) at 200 uM.
A short description of test [8]: Inhibition of Staphylococcus aureus TarO. Also noted: species or system Staphylococcus aureus subsp. aureus COL.

For the molecule `CCN(C(=O)CCn1c(C2CCC(C(C)(C)C)CC2)nc2ccccc21)C1CCCCC1` (stereo not given), the half-maximal effective concentration (EC50) in test [1] was 0.25 µM; in test [2], 0.05 µM. In test [3], the MITC95 was found to be 0.015 µM.

Take `CCN(C(=O)CCn1c(C2CCCCC2)nc2ccccc21)C1CCCCC1`: the EC50 in test [1] is 10.1 µM; in test [2], 6.2 µM. Further, the MITC95 in test [3] was determined as 1.9 µM.

For `CC1(C)C2CC[C@]1(C)[C@@H](NC(=O)CCn1c(C3CCNCC3)nc3ccccc31)C2`, the concentration giving a half-maximal response (EC50) in test [1] and in test [2] was over 200 µM throughout. Besides, the MITC95 in test [3] was over 200 µM.

Regarding `CCN(C(=O)CCn1c2cc(Br)ccc2nc1[C@H]1CC[C@H](CC)CC1)C1CCCCC1`, the Activity stood at 68% in test [4] and 42% in test [5]. Further, the results for the EC50 in test [1] and in test [2] were 0.24 µM and 0.33 µM, respectively. The MITC95 in test [3] stood at 0.031 µM.

With `CCC1CCN(c2nc3ccccc3n2CCC(=O)N(CC)C2CCCCC2)CC1`, the results for the EC50 in test [1] and in test [2] were 0.39 µM and 0.22 µM, respectively. The MITC95 in test [3] turned out to be 0.1 µM.

Regarding `CC(C)(C)OC(=O)N1CCC(c2nc3ccccc3n2CCC(=O)N[C@H]2CC3CC[C@@]2(C)C3(C)C)CC1`, the EC50 in test [1] came to 162 µM; in test [2] it was 58.7 µM. The MITC95 in test [3] was found to be 9.4 µM.

With `CCN(C(=O)CCn1c(N2CCC(C(C)(C)C)CC2)nc2ccccc21)C1CCCCC1`, the Activity in test [4] was found to be 76%; in test [5], 29%. Besides, the EC50 in test [1] amounted to 0.25 µM; in test [2] it was 0.13 µM. The MITC95 in test [3] was determined as 0.016 µM.

Take `CC1(C)[C@@H]2CC[C@@]1(C)[C@H](NC(=O)CCn1c(C3CCCCC3)nc3ccccc31)C2`: the inhibition result in test [6] and in test [7] was “inactive” each time. Besides, the EC50 in test [1] was 7.9 µM; in test [2], 2.4 µM. The molecule also registered a concentration for half-maximal inhibition (IC50) in test [8] of 0.4 µM. Besides, the MITC95 in test [3] was found to be 1.6 µM.

Consider `CCN(C(=O)CCn1c2ccc(Br)cc2nc1[C@H]1CC[C@H](CC)CC1)C1CCCCC1`, for which the Activity in test [4] came to 80%; in test [5] it was 46%. For the same molecule, the values for the EC50 in test [1] and in test [2] were 0.027 µM and 0.015 µM, respectively. Further, in test [3], the MITC95 is 0.004 µM.

Turning to `CCN1CCC(c2nc3ccccc3n2CCC(=O)N[C@H]2CC3CC[C@@]2(C)C3(C)C)CC1`, the EC50 in test [1] and in test [2] was over 200 µM throughout. Besides, the MITC95 in test [3] was over 200 µM.

`CCCN(C(=O)CCn1c(C2CCCCC2)nc2ccccc21)C1CCCCC1`: the concentration giving a half-maximal response (EC50) in test [1] is 200 µM; in test [2] it was 7.8 µM. Besides, in test [3], the MITC95 was found to be 6.2 µM.

Consider `CC1(C)[C@@H]2CC[C@@]1(C)[C@@H](NC(=O)CCn1c(C3CCCCC3)nc3ccccc31)C2`, for which the half-maximal effective concentration (EC50) in test [1] is 178 µM; in test [2], 57.7 µM. Moreover, the MITC95 in test [3] was determined as 16.7 µM.

With `CCN(C(=O)CCn1c2cccc(Br)c2nc1[C@H]1CC[C@H](CC)CC1)C1CCCCC1`, the Activity in test [4] stood at 68%; in test [5], 83%. Also, the values for the concentration for a half-maximal effect (EC50) in test [1] and in test [2] were 3.4 µM and 1.3 µM, respectively. Moreover, the MITC95 in test [3] came to 0.3 µM.

Regarding `CN(C(=O)CCn1c(C2CCCCC2)nc2ccccc21)C1CCCCC1`, the half-maximal effective concentration (EC50) in test [1] was determined as 25 µM; in test [2], 11.4 µM. Moreover, in test [3], the MITC95 was found to be 4.7 µM.

As to `O=C(CCn1c(C2CCCCC2)nc2ccccc21)NC1CCCCC1`, the concentration for a half-maximal effect (EC50) in test [1] worked out at 200 µM; in test [2], 138 µM. The MITC95 in test [3] turned out to be 25 µM.

Consider `CCN(C(=O)CCn1c(N2CCCCC2)nc2ccccc21)C1CCCCC1`, for which the EC50 was over 200 µM in test [1] and 7 µM in test [2]. Also, the MITC95 in test [3] was 4.7 µM.

For the molecule `CC(=O)N1CCC(c2nc3ccccc3n2CCC(=O)N[C@H]2CC3CC[C@@]2(C)C3(C)C)CC1`, the concentration for a half-maximal effect (EC50) in test [1] and in test [2] was over 200 µM in each case. For the same molecule, the MITC95 in test [3] is over 200 µM.

For the molecule `CCN(C(=O)CCn1c(C2CCCCC2)nc2ccccc21)C1CCCC1`, the concentration giving a half-maximal response (EC50) was determined as 200 µM in test [1] and 29.7 µM in test [2]. The MITC95 in test [3] came out at 12.5 µM.

Turning to `CCN(C(=O)CCn1c2cccc(C)c2nc1[C@H]1CC[C@H](CC)CC1)C1CCCCC1`, the Activity in test [4] turned out to be 68%; in test [5], 92%. Besides, the results for the EC50 in test [1] and in test [2] were 0.9 µM and 0.8 µM, respectively. Further, the MITC95 in test [3] is 0.1 µM.

Regarding `CC1(C)C2CC[C@]1(C)[C@@H](NC(=O)CCn1c(C3CCN(S(C)(=O)=O)CC3)nc3ccccc31)C2`, the half-maximal effective concentration (EC50) in test [1] and in test [2] was over 200 µM throughout. For the same molecule, the MITC95 in test [3] is over 200 µM.

As to `CCC1CCC(c2nc3ccccc3n2CCC(=O)N(CC)C2CCCCC2)CC1` (stereo not given), the concentration for a half-maximal effect (EC50) in test [1] was 0.22 µM; in test [2], 0.24 µM. In addition, the MITC95 in test [3] turned out to be 0.03 µM.

`CCN(C(=O)CCn1c(N2CCC(C)CC2)nc2ccccc21)C1CCCCC1`: the EC50 in test [1] was 3.8 µM; in test [2], 0.91 µM. In test [3], the MITC95 was determined as 1.3 µM.

With `CCN(C(=O)CCn1c(C2CCCCC2)nc2ccccc21)C1CCCCCC1`, the EC50 in test [1] and in test [2] was 200 µM in each case. Moreover, the MITC95 in test [3] is 4.7 µM.

As for `CCN(C(=O)CCn1c(C2CCCCC2)nc2ccccc21)c1ccccc1`, the EC50 in test [1] and in test [2] was 200 µM throughout. The MITC95 in test [3] was 50 µM.
